Experimental data: publication PMC7562955 (Nature Communications, 2020)

Molecular target: T1, TLR7 (Homo sapiens, UniProt Q9NYK1)
T1 sequence (Q9NYK1 27-1049): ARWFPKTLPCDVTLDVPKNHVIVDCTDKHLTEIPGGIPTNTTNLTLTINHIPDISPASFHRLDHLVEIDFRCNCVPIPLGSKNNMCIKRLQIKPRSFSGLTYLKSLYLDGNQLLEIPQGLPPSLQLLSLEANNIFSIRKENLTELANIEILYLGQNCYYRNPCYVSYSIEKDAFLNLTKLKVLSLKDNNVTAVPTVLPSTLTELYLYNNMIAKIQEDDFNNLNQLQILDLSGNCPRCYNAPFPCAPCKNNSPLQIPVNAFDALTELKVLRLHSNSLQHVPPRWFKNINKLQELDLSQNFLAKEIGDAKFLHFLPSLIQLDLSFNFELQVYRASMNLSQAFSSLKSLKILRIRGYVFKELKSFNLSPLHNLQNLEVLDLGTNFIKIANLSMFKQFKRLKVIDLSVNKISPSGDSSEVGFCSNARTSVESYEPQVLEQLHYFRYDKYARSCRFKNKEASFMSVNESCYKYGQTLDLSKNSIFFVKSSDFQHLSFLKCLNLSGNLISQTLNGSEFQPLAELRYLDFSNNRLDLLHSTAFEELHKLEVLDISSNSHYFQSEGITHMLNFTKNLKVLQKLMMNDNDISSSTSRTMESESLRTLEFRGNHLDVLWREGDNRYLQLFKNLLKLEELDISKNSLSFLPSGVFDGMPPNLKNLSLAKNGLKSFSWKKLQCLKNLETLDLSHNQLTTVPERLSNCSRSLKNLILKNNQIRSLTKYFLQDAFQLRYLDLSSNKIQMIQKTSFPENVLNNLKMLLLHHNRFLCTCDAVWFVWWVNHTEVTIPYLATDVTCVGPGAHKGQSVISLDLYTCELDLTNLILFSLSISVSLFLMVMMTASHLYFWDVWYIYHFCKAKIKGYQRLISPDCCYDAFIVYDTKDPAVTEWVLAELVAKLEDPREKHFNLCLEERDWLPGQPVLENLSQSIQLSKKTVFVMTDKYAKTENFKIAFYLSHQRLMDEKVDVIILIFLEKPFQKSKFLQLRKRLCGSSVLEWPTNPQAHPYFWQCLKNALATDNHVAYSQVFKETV
Assay: Dose-response relationship between antagonist and R848, human TLR7 reporter gene assay
Assay type: cell-based
Set-up: host or cells: HEK293 (TLR7/NF-κB/SEAPorter)
Protocol: Compounds were dissolved in dimethyl sulfoxide. Human TLR7 reporter cell line (Novus Biological) were seeded in 96-well microtiter plate (AGC techno glass) at 5 × 10^4 cells/well in DMEM (GIBCO) with 10% fetal bovine serum (GIBCO), and 10 μg ml^−1 Blastcidin S HCl (GIBCO) and incubated at 37 °C in 5% CO2. The plates were incubated over-night and then addition with various concentrations of compound. After 30 min, R848 (human TLR7/8 ligand) that was diluted with the medium was added, wherein final concentration was adjusted to 0.01, 0.03, 0.1, 0.3, 1, 3, 10, 30, 100, 300 and 1000 μM. The plates were then incubated an additional 20 ± 1 h at 37 °C in 5% CO2, and then the SEAP activity was measured as activation of human TLR7. The SEAP activity was evaluated as follows: pNPP (Invitrogen) was added to the incubated sample (50 μl/well); after 15 min, 4 mol l^−1 sodium hydroxide solution (nacalai tesque) was added thereto (50 μl/well) to quench the reaction; and the absorbance of each sample was measured at 405 nm with microplate reader SpectraMax M4 (Molecular Devices).

CCOc1nc(N)c2nc(-c3cncc(F)c3)n(Cc3ccc(CN4C[C@@H]5C[C@H]4CN5C)cc3)c2n1 [Cpd-6]
mode of action against R848: acted as antagonists
TLR7 reporter signal (Cpd-6 0.001 µM, log10[R848 (µM)] 0): 12.4492
TLR7 reporter signal (Cpd-6 0.001 µM, log10[R848 (µM)] 0.477121): 42.5203
TLR7 reporter signal (Cpd-6 0.001 µM, log10[R848 (µM)] 1): 87.7267
TLR7 reporter signal (Cpd-6 0.001 µM, log10[R848 (µM)] 1.47712): 99.7073
TLR7 reporter signal (Cpd-6 0.001 µM, log10[R848 (µM)] 2): 100.849
TLR7 reporter signal (Cpd-6 0.001 µM, log10[R848 (µM)] 2.47712): 102.716
TLR7 reporter signal (Cpd-6 0.001 µM, log10[R848 (µM)] 3): 99.4752
TLR7 reporter signal (Cpd-6 0.001 µM, log10[R848 (µM)] -0.522879): 1.192
TLR7 reporter signal (Cpd-6 0.001 µM, log10[R848 (µM)] -1): 0.7791
TLR7 reporter signal (Cpd-6 0.001 µM, log10[R848 (µM)] -1.52288): 0.2957
TLR7 reporter signal (Cpd-6 0.001 µM, log10[R848 (µM)] -2): -0.1404
TLR7 reporter signal (Cpd-6 0.003 µM, log10[R848 (µM)] 0): 9.923
TLR7 reporter signal (Cpd-6 0.003 µM, log10[R848 (µM)] 0.477121): 37.8265
TLR7 reporter signal (Cpd-6 0.003 µM, log10[R848 (µM)] 1): 84.946
TLR7 reporter signal (Cpd-6 0.003 µM, log10[R848 (µM)] 1.47712): 98.5645
TLR7 reporter signal (Cpd-6 0.003 µM, log10[R848 (µM)] 2): 102.64
TLR7 reporter signal (Cpd-6 0.003 µM, log10[R848 (µM)] 2.47712): 101.614
TLR7 reporter signal (Cpd-6 0.003 µM, log10[R848 (µM)] 3): 100.614
TLR7 reporter signal (Cpd-6 0.003 µM, log10[R848 (µM)] -0.522879): 0.6697
TLR7 reporter signal (Cpd-6 0.003 µM, log10[R848 (µM)] -1): 0.7155
TLR7 reporter signal (Cpd-6 0.003 µM, log10[R848 (µM)] -1.52288): 0.0547
TLR7 reporter signal (Cpd-6 0.003 µM, log10[R848 (µM)] -2): -0.2513
TLR7 reporter signal (Cpd-6 0.01 µM, log10[R848 (µM)] -2): -0.4139
TLR7 reporter signal (Cpd-6 0.1 μM, log10[R848 (µM)] 0): 1.818
TLR7 reporter signal (Cpd-6 0.1 μM, log10[R848 (µM)] 0.477121): 11.9813
TLR7 reporter signal (Cpd-6 0.1 μM, log10[R848 (µM)] 1): 58.4894
TLR7 reporter signal (Cpd-6 0.1 μM, log10[R848 (µM)] 1.47712): 91.4766
TLR7 reporter signal (Cpd-6 0.1 μM, log10[R848 (µM)] 2): 100.668
TLR7 reporter signal (Cpd-6 0.1 μM, log10[R848 (µM)] 2.47712): 102.716
TLR7 reporter signal (Cpd-6 0.1 μM, log10[R848 (µM)] 3): 98.9371
TLR7 reporter signal (Cpd-6 0.1 μM, log10[R848 (µM)] -0.522879): 0.03031
TLR7 reporter signal (Cpd-6 0.1 μM, log10[R848 (µM)] -1): 0.4916
TLR7 reporter signal (Cpd-6 0.1 μM, log10[R848 (µM)] -1.52288): 0.6438
TLR7 reporter signal (Cpd-6 0.1 μM, log10[R848 (µM)] -2): -0.1471
TLR7 reporter signal (Cpd-6 0.3 μM, log10[R848 (µM)] 0): 0.5455
TLR7 reporter signal (Cpd-6 0.3 μM, log10[R848 (µM)] 0.477121): 4.006
TLR7 reporter signal (Cpd-6 0.3 μM, log10[R848 (µM)] 1): 31.2508
TLR7 reporter signal (Cpd-6 0.3 μM, log10[R848 (µM)] 1.47712): 73.4318
TLR7 reporter signal (Cpd-6 0.3 μM, log10[R848 (µM)] 2): 95.1399
TLR7 reporter signal (Cpd-6 0.3 μM, log10[R848 (µM)] 2.47712): 101.486
TLR7 reporter signal (Cpd-6 0.3 μM, log10[R848 (µM)] 3): 99.1034
TLR7 reporter signal (Cpd-6 0.3 μM, log10[R848 (µM)] -0.522879): -0.01626
TLR7 reporter signal (Cpd-6 0.3 μM, log10[R848 (µM)] -1): 0.3371
TLR7 reporter signal (Cpd-6 0.3 μM, log10[R848 (µM)] -1.52288): 0.2617
TLR7 reporter signal (Cpd-6 0.3 μM, log10[R848 (µM)] -2): -0.3984
TLR7 reporter signal (Cpd-6 1 μM, log10[R848 (µM)] 0): 0.1648
TLR7 reporter signal (Cpd-6 1 μM, log10[R848 (µM)] 0.477121): 0.6756
TLR7 reporter signal (Cpd-6 1 μM, log10[R848 (µM)] 1): 11.4786
TLR7 reporter signal (Cpd-6 1 μM, log10[R848 (µM)] 1.47712): 45.6507
TLR7 reporter signal (Cpd-6 1 μM, log10[R848 (µM)] 2): 84.5912
TLR7 reporter signal (Cpd-6 1 μM, log10[R848 (µM)] 2.47712): 96.6131
TLR7 reporter signal (Cpd-6 1 μM, log10[R848 (µM)] 3): 99.4242
TLR7 reporter signal (Cpd-6 1 μM, log10[R848 (µM)] -0.522879): -0.03548
TLR7 reporter signal (Cpd-6 1 μM, log10[R848 (µM)] -1): 0.7835
TLR7 reporter signal (Cpd-6 1 μM, log10[R848 (µM)] -1.52288): 0.4073
TLR7 reporter signal (Cpd-6 1 μM, log10[R848 (µM)] -2): -0.4287
TLR7 reporter signal (Cpd-6 3 μM, log10[R848 (µM)] 0): -0.1671
TLR7 reporter signal (Cpd-6 3 μM, log10[R848 (µM)] 0.477121): -0.3319
TLR7 reporter signal (Cpd-6 3 μM, log10[R848 (µM)] 1): 1.145
TLR7 reporter signal (Cpd-6 3 μM, log10[R848 (µM)] 1.47712): 10.9886
TLR7 reporter signal (Cpd-6 3 μM, log10[R848 (µM)] 2): 45.7638
TLR7 reporter signal (Cpd-6 3 μM, log10[R848 (µM)] 2.47712): 76.6561
TLR7 reporter signal (Cpd-6 3 μM, log10[R848 (µM)] 3): 93.6623
TLR7 reporter signal (Cpd-6 3 μM, log10[R848 (µM)] -0.522879): -0.0924
TLR7 reporter signal (Cpd-6 3 μM, log10[R848 (µM)] -1): 0.3881
TLR7 reporter signal (Cpd-6 3 μM, log10[R848 (µM)] -1.52288): 0.1811
TLR7 reporter signal (Cpd-6 3 μM, log10[R848 (µM)] -2): -0.3984
TLR7 reporter signal (Cpd-6 10 μM, log10[R848 (µM)] 0): -0.3585
TLR7 reporter signal (Cpd-6 10 μM, log10[R848 (µM)] 0.477121): 0.00887
TLR7 reporter signal (Cpd-6 10 μM, log10[R848 (µM)] 1): -0.3311
TLR7 reporter signal (Cpd-6 10 μM, log10[R848 (µM)] 1.47712): 1.483
TLR7 reporter signal (Cpd-6 10 μM, log10[R848 (µM)] 2): 7.633
TLR7 reporter signal (Cpd-6 10 μM, log10[R848 (µM)] 2.47712): 30.5109
TLR7 reporter signal (Cpd-6 10 μM, log10[R848 (µM)] 3): 70.7738
TLR7 reporter signal (Cpd-6 10 μM, log10[R848 (µM)] -0.522879): 0.08501
TLR7 reporter signal (Cpd-6 10 μM, log10[R848 (µM)] -1): 0.6054
TLR7 reporter signal (Cpd-6 10 μM, log10[R848 (µM)] -1.52288): 0.5159
TLR7 reporter signal (Cpd-6 10 μM, log10[R848 (µM)] -2): -0.6941
TLR7 reporter signal (Cpd-6 30 μM, log10[R848 (µM)] 0): -0.8205
TLR7 reporter signal (Cpd-6 30 μM, log10[R848 (µM)] 0.477121): -0.1671
TLR7 reporter signal (Cpd-6 30 μM, log10[R848 (µM)] 1): -0.3932
TLR7 reporter signal (Cpd-6 30 μM, log10[R848 (µM)] 1.47712): 0.7037
TLR7 reporter signal (Cpd-6 30 μM, log10[R848 (µM)] 2): 0.5559
TLR7 reporter signal (Cpd-6 30 μM, log10[R848 (µM)] 2.47712): 4.178
TLR7 reporter signal (Cpd-6 30 μM, log10[R848 (µM)] 3): 28.3207
TLR7 reporter signal (Cpd-6 30 μM, log10[R848 (µM)] -0.522879): -0.2084
TLR7 reporter signal (Cpd-6 30 μM, log10[R848 (µM)] -1): 0.05618
TLR7 reporter signal (Cpd-6 30 μM, log10[R848 (µM)] -1.52288): 0.1597
TLR7 reporter signal (Cpd-6 30 μM, log10[R848 (µM)] -2): -0.9107
TLR7 reporter signal (Cpd-6 100 μM, log10[R848 (µM)] 0): -0.4154
TLR7 reporter signal (Cpd-6 100 μM, log10[R848 (µM)] 0.477121): -0.3459
TLR7 reporter signal (Cpd-6 100 μM, log10[R848 (µM)] 1): -0.6712
TLR7 reporter signal (Cpd-6 100 μM, log10[R848 (µM)] 1.47712): 0.8663
TLR7 reporter signal (Cpd-6 100 μM, log10[R848 (µM)] 2): 0.5381
TLR7 reporter signal (Cpd-6 100 μM, log10[R848 (µM)] 2.47712): 4.485
TLR7 reporter signal (Cpd-6 100 μM, log10[R848 (µM)] 3): 25.5163
TLR7 reporter signal (Cpd-6 100 μM, log10[R848 (µM)] -0.522879): -0.01478
TLR7 reporter signal (Cpd-6 100 μM, log10[R848 (µM)] -1): 0.612
TLR7 reporter signal (Cpd-6 100 μM, log10[R848 (µM)] -1.52288): 1.063
TLR7 reporter signal (Cpd-6 100 μM, log10[R848 (µM)] -2): -0.5529
